For test [1], the target named is T1, PI3Kβ (Homo sapiens, UniProt P42338).
T1 construct: purchased Millipore Corporation 14-603-K
The test is described as follows: PI3-Kinase HTRF assay, PI3Kβ. The format is biochemical. As to conditions: bins Greater than 10 μM and Greater than 1 μM to 10 μM; 10 μM ATP, PIP2 at 10 μM. The source says:
(§1) A PI3-Kinase HTRF® assay kit (cat No. 33-016) purchased from Millipore Corporation was used to screen compounds provided herein. This assay used specific, high affinity binding of the GRPI pleckstrin homology (PH) domain to PIP3, the product of a Class 1A or 1B PI3 Kinase acting on its physiological substrate PIP2. During the detection phase of the assay, a complex was generated between the GST-tagged PH domain and biotinylated short chain PIP3. The biotinylated PIP3 and the GST-tagged PH domain recruited fluorophores (Streptavidin-Allophycocyanin and Europium-labeled anti-GST respectively) to form the fluorescence resonance energy transfer (FRET) architecture, generating a stable time-resolved FRET signal. The FRET complex was disrupted in a competitive manner by non-biotinylated PIP3, a product formed in the PI3 Kinase assay.
(§2) PI3 Kinase α, β, γ and δ activity was assayed using the PI3 Kinase HTRF® assay kit (catalogue No. 33-016) purchased from Millipore Corporation. Purified recombinant PI3Kα (catalogue No. 14-602-K), PI3Kβ (catalogue No. 14-603-K), PI3Kγ (catalogue No. 14-558-K) and PI3Kδ (catalogue No. 14-604-K) were obtained from Millipore Corporation. Purified recombinant PI3K enzyme was used to catalyze the phosphorylation of phosphatidylinositol 4,5-bisphosphate (PIP2 at 10 μM) to phosphatidylinositol 3,4,5-trisphosphate (PIP3) in the presence of 10 μM ATP. The assay was carried out in 384-well format and detected using a Perkin Elmer EnVision Xcite Multilabel Reader. Emission ratios were converted into percent inhibitions and imported into GraphPad Prism software. The concentration necessary to achieve inhibition of enzyme activity by 50% (IC50) was calculated using concentrations ranging from 20 μM to 0.1 nM (12-point curve). IC50 values were determined using a nonlinear regression model available in GraphPad Prism 5. […]

Test [2] has as its system Balb/c splenic B cells. As to the kind of experiment: B cell activation and proliferation assay. The class given is cell-based. The conditions noted are these: Mus musculus, column bins 1 μM to 100 nM (given as 100-1000) and Less than 100 nM, read-out: B cell proliferation EC50. The procedure:
The ability of one or more subject compounds to inhibit B cell activation and proliferation is determined according to standard procedures known in the art. For example, an in vitro cellular proliferation assay is established that measures the metabolic activity of live cells. The assay is performed in a 96 well microtiter plate using Alamar Blue reduction. Balb/c splenic B cells are purified over a Ficoll-Paque™ PLUS gradient followed by magnetic cell separation using a MACS B cell Isolation Kit (Miletenyi). Cells are plated in 90 μl at 50.000 cells/well in B Cell Media (RPMI+10% FBS+Penn/Strep+50 μME5 mM HEPES). A compound provided herein is diluted in B Cell Media and added in a 10 μl volume. Plates are incubated for 30 min at 37° C. and 5% CO2 (0.2% DMSO final concentration). A 50 μl B cell stimulation cocktail is then added containing either 10 μg/ml LPS or 5 μg/ml F(ab′)2 Donkey anti-mouse IgM plus 2 ng/ml recombinant mouse IL4 in B Cell Media. Plates are incubated for 72 hours at 37° C. and 5% CO2. A volume of 15 μL of Alamar Blue reagent is added to each well and plates are incubated for 5 hours at 37° C. and 5% CO2. Alamar Blue fluoresce is read at 560Ex/590Em, and IC50 or EC50 values are calculated using GraphPad Prism 5.

For test [3], the target named is T2, PI3Kα (Homo sapiens, UniProt P42336).
T2 construct: purchased Millipore Corporation 14-602-K
T2 sequence (P42336 whole entry): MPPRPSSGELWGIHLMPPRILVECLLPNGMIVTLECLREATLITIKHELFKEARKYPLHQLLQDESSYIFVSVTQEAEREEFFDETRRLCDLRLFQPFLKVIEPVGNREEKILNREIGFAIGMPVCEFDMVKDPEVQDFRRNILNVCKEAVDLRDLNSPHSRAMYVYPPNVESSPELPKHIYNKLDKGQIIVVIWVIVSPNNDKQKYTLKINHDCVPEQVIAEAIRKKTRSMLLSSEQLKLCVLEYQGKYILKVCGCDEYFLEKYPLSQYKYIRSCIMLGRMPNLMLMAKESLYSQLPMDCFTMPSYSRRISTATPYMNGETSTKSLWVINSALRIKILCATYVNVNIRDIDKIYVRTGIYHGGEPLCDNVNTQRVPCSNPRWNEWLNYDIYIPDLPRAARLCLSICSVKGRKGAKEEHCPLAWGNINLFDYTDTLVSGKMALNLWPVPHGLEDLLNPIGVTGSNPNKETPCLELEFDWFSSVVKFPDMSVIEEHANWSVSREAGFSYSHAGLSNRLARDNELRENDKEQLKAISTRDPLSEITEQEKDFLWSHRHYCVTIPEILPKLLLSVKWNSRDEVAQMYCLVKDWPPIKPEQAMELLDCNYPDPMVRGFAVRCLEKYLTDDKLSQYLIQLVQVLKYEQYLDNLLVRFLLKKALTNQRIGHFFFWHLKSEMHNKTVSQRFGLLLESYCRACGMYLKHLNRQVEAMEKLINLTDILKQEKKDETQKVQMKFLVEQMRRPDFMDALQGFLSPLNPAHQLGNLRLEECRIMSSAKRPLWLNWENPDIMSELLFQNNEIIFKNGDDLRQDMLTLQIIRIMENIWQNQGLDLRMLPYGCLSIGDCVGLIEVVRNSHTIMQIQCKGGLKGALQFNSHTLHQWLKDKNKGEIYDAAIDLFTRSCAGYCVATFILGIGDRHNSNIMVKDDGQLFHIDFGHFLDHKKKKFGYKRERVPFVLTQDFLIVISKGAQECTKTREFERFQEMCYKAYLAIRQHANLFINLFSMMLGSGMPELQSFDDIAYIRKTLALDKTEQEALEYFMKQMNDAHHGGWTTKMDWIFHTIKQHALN
T2 sequence (P27986 whole entry partner): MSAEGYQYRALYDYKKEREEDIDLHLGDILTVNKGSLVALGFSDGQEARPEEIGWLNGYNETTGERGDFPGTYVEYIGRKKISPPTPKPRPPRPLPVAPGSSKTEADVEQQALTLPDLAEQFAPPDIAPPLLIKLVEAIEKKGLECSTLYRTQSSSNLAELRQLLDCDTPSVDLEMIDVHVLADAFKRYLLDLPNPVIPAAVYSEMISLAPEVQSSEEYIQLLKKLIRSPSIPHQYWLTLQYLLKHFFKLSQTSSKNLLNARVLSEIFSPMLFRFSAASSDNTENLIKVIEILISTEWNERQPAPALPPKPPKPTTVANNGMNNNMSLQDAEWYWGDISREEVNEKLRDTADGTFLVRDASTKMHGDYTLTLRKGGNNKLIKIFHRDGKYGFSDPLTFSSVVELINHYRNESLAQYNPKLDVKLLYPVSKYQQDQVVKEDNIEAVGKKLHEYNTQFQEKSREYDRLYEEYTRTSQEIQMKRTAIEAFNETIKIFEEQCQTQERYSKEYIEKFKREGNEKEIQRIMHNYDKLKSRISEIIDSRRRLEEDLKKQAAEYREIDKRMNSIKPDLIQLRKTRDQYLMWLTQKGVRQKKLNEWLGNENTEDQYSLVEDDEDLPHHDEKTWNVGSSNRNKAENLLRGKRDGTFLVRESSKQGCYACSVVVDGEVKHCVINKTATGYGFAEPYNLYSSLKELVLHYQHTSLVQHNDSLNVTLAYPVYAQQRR
The test is described as follows: PI3-Kinase HTRF assay, PI3Kα. The format is biochemical. The conditions noted are these: bins Greater than 10 μM and Greater than 1 μM to 10 μM; 10 μM ATP, PIP2 at 10 μM; read-out: IC50 P13Kα.
Text: as §1, §2

T1 sequence (P42338 whole entry): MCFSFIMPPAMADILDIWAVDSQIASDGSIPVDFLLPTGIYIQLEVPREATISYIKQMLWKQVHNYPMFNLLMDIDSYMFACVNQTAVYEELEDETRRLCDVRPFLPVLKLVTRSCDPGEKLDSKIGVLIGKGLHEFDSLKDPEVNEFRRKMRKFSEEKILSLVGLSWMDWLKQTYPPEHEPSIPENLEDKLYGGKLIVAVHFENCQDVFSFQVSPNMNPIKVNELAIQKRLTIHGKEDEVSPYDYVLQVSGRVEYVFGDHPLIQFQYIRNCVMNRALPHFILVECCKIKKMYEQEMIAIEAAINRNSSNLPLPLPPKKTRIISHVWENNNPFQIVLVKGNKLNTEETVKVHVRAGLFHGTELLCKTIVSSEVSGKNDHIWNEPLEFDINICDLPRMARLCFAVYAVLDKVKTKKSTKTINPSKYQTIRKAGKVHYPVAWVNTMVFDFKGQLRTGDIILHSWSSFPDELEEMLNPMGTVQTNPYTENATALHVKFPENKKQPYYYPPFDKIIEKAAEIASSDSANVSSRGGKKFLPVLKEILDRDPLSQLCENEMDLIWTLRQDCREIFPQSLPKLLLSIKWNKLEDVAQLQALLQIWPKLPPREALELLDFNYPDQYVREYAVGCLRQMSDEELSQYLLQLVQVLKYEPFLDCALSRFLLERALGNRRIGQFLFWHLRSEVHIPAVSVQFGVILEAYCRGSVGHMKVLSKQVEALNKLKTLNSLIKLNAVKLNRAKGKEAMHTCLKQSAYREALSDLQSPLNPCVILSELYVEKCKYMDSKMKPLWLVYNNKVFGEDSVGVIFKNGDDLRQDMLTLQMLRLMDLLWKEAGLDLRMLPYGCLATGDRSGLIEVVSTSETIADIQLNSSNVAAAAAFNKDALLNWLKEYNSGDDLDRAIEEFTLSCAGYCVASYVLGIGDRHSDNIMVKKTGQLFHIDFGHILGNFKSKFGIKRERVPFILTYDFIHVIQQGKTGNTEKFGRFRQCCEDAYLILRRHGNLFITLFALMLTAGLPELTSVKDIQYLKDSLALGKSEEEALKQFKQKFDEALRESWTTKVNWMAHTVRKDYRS
T1 sequence (P27986 whole entry partner): as the sequence (P27986 whole entry partner) above

For the compound `C[C@H](Nc1nc(N)ncc1C#N)c1cc2cccc(Cl)c2c(=O)n1-c1c(F)cc(F)cc1F` [Compound 258], in test [1], the IC50 was 1000 to 10000 nM.

Turning to `C[C@H](Nc1nc(N)ncc1-c1ccc(O)cc1)c1cc2cccc(Cl)c2c(=O)n1-c1ccccc1` [Compound 436], the IC50 in test [1] lay in the range of 1000 to 10000 nM.

`C[C@H](Nc1nc(N)ncc1C#N)c1cc2cccc(Cl)c2c(=O)n1Cc1ccccc1` [Compound 303] came in with an IC50 in test [1] of 1000 to 10000 nM.

In test [1], `Cc1nc(-c2cnc(N)nc2N[C@@H](C)c2cc3cccc(Cl)c3c(=O)n2-c2ccccc2)sc1C` [Compound 366] had an IC50 of 1000 to 10000 nM.

Consider `C[C@H](Nc1nc(N)ncc1-c1cscn1)c1cc2cccc(Cl)c2c(=O)n1-c1ccccc1` [Compound 360], for which the EC50 in test [2] is less than 100 nM. In test [3], the IC50 is 1000 to 10000 nM.

`C[C@H](Nc1nc(N)ncc1-c1ccsc1)c1cc2cccc(Cl)c2c(=O)n1-c1ccccc1` [Compound 373] displayed an IC50 in test [1] of 1000 to 10000 nM.

Take `C[C@H](Nc1nc(N)ncc1C(=O)N(C)C)c1cc2cccc(-c3cnn(C)c3)c2c(=O)n1-c1ccccc1` [Compound 203]: the EC50 in test [2] was less than 100 nM. For the same compound, the IC50 in test [3] is 1000 to 10000 nM.

In test [1], `C[C@H](Nc1nc(N)ncc1-c1cnn(C)c1)c1cc2cccc(Cl)c2c(=O)n1-c1ccccc1` [Compound 376] displayed an IC50 of 1000 to 10000 nM.

In turn, `C[C@H](Nc1nc(N)ncc1C#N)c1cc2cccc(Cl)c2c(=O)n1-c1ccc2c(c1)OCO2` [Compound 261] gave an IC50 in test [1] of 1000 to 10000 nM.

On to `CC#Cc1cccc2cc([C@H](C)Nc3nc(N)ncc3C#N)n(-c3ccccc3)c(=O)c12` [Compound 222], for which, in test [2], the EC50 is less than 100 nM. For the same compound, the IC50 in test [3] was 1000 to 10000 nM.

Consider `C#Cc1cccc2cc([C@H](C)Nc3nc(N)ncc3C#N)n(-c3ccccc3)c(=O)c12` [Compound 72], for which the EC50 in test [2] was less than 100 nM. Further, the IC50 in test [3] lay in the range of 1000 to 10000 nM.

As for `Cc1cnc(-c2cnc(N)nc2N[C@@H](C)c2cc3cccc(Cl)c3c(=O)n2-c2ccccc2)s1` [Compound 368], the IC50 in test [1] lay within 1000 to 10000 nM.

Compound `C[C@H](Nc1nc(N)ncc1-c1ccncc1)c1cc2cccc(Cl)c2c(=O)n1-c1ccccc1` [Compound 168] gave an IC50 in test [1] of 1000 to 10000 nM.

On to `C[C@H](Nc1nc(N)ncc1C#N)c1cc2cccc(Cl)c2c(=O)n1-c1cscn1` [Compound 249], for which the EC50 in test [2] was less than 100 nM. Further, the IC50 in test [3] lay in the range of 1000 to 10000 nM.

On to `Cc1ncc(-c2cccc3cc([C@H](C)Nc4nc(N)ncc4C#N)n(-c4cccc(F)c4)c(=O)c23)cn1` [Compound 20], for which the EC50 in test [2] was less than 100 nM. In addition, in test [3], the IC50 fell in the range of 1000 to 10000 nM.

For the compound `Cc1cccc2cc([C@H](C)Nc3nc(N)ncc3C#N)n(-c3cccc(F)c3)c(=O)c12` [Compound 15], the EC50 in test [2] was less than 100 nM. Besides, the IC50 in test [3] lay within 1000 to 10000 nM.

With `CCn1c([C@H](C)Nc2nc(N)ncc2C#N)cc2cccc(Cl)c2c1=O` [Compound 309], the EC50 in test [2] was less than 100 nM. Further, the half-inhibitory concentration (IC50) in test [3] is 1000 to 10000 nM.

Take `Cc1ncc(-c2cccc3cc([C@H](C)Nc4nc(N)ncc4C#N)n(-c4ccccc4)c(=O)c23)cn1` [Compound 55]: in test [2], the EC50 was less than 100 nM. Moreover, in test [3], the IC50 was in the range of 1000 to 10000 nM.

For the compound `C[C@H](Nc1nc(N)ncc1C#N)c1cc2cccc(-c3cccc(S(C)(=O)=O)c3)c2c(=O)n1-c1ccccc1` [Compound 164], the EC50 in test [2] is less than 100 nM. Further, the IC50 in test [3] lay in the range of 1000 to 10000 nM.

`C[C@H](Nc1nc(N)ncc1C#N)c1cc2cccc(Cl)c2c(=O)n1-c1ccccc1` [Compound 8, (S)-2-amino-4-((1-(8-chloro-1-oxo-2-phenyl-1,2-dihydroisoquinolin-3-yl)ethyl)amino)pyrimidine-5-carbonitrile]: the EC50 in test [2] is less than 100 nM. In addition, in test [3], the IC50 was 1000 to 10000 nM.

With `C[C@H](Nc1nc(N)ncc1C#N)c1cc2cccc(Cl)c2c(=O)n1-c1cccc(F)c1F` [Compound 282], the IC50 in test [1] was 1000 to 10000 nM.

Compound `C[C@H](Nc1nc(N)ncc1-c1ccccn1)c1cc2cccc(Cl)c2c(=O)n1-c1ccccc1` [Compound 375] displayed an IC50 in test [1] of 1000 to 10000 nM.

As to `C[C@H](Nc1nc(N)ncc1C#N)c1cc2cccc(Cl)c2c(=O)n1-c1ccon1` [Compound 332], the EC50 in test [2] was less than 100 nM. Further, the IC50 in test [3] is 1000 to 10000 nM.

Compound `CC(C)Oc1cncc(-c2cccc3cc([C@H](C)Nc4nc(N)ncc4C#N)n(-c4ccccc4)c(=O)c23)c1` [Compound 53] yielded an IC50 in test [1] of 1000 to 10000 nM.

For the compound `C[C@H](Nc1nc(N)ncc1C#N)c1cc2cccc(Cl)c2c(=O)n1-c1cccc(F)c1` [Compound 18], the EC50 in test [2] was less than 100 nM. Further, in test [3], the IC50 was in the range of 1000 to 10000 nM.

With `C#Cc1cnc(N)nc1N[C@@H](C)c1cc2cccc(Cl)c2c(=O)n1-c1ccccc1` [Compound 91], in test [2], the EC50 is less than 100 nM. In addition, the IC50 in test [3] lay in the range of 1000 to 10000 nM.

In turn, `C[C@H](Nc1nc(N)ncc1C#N)c1cc2cccc(-c3ccc(=O)n(C4CCOCC4)c3)c2c(=O)n1-c1ccccc1` [Compound 235] returned an IC50 in test [1] of 1000 to 10000 nM.

For `C[C@H](Nc1nc(N)ncc1C#N)c1cc2cccc(-c3cncc(OC(F)F)c3)c2c(=O)n1-c1ccccc1` [Compound 152], the EC50 in test [2] is less than 100 nM. In addition, in test [3], the concentration for half-maximal inhibition (IC50) was in the range of 1000 to 10000 nM.

Consider `COc1cc(-c2cccc3cc([C@H](C)Nc4nc(N)ncc4[N+](=O)[O-])n(-c4ccccc4)c(=O)c23)ccn1` [Compound 177], for which, in test [2], the EC50 is less than 100 nM. The half-inhibitory concentration (IC50) in test [3] was in the range of 1000 to 10000 nM.

Regarding `COc1ccc(-c2cccc3cc([C@H](C)Nc4nc(N)ncc4C#N)n(C4CC4)c(=O)c23)cn1` [Compound 108], in test [2], the EC50 is less than 100 nM. In addition, in test [3], the IC50 was 1000 to 10000 nM.

On to `COc1ccc(-c2cccc3cc([C@H](C)Nc4nc(N)ncc4C#N)n(-c4ccccc4)c(=O)c23)nc1` [Compound 206], for which the EC50 in test [2] is less than 100 nM. The IC50 in test [3] fell in the range of 1000 to 10000 nM.

For the compound `CNc1cc(-c2cccc3cc([C@H](C)Nc4nc(N)ncc4C#N)n(-c4ccccc4)c(=O)c23)ccn1` [Compound 185], the EC50 in test [2] is less than 100 nM. Besides, the IC50 in test [3] is 1000 to 10000 nM.

Consider `CCOc1ncc(-c2cnc(N)nc2N[C@@H](C)c2cc3cccc(Cl)c3c(=O)n2-c2ccccc2)s1` [Compound 371], for which the EC50 in test [2] is less than 100 nM. Besides, in test [3], the IC50 lay in the range of 1000 to 10000 nM.

In the case of `C[C@H](Nc1nc(N)ncc1-c1cncs1)c1cc2cccc(Cl)c2c(=O)n1-c1ccccc1` [Compound 361], in test [2], the EC50 was less than 100 nM. For the same compound, the IC50 in test [3] was 1000 to 10000 nM.

In the case of `C[C@H](Nc1nc(N)ncc1C#N)c1cc2cccc(Cl)c2c(=O)n1-c1ccc(Cl)cc1` [Compound 217], the EC50 in test [2] was less than 100 nM. Besides, the IC50 in test [3] fell in the range of 1000 to 10000 nM.

Consider `COc1cc(-c2cccc3cc([C@H](C)Nc4nc(N)ncc4-c4ccncc4)n(-c4ccccc4)c(=O)c23)ccn1` [Compound 169], for which the EC50 in test [2] is less than 100 nM. Also, the IC50 in test [3] lay within 1000 to 10000 nM.

In the case of `CC(C)n1c([C@H](C)Nc2nc(N)ncc2C#N)cc2cccc(Cl)c2c1=O` [Compound 325], the EC50 in test [2] was less than 100 nM. For the same compound, the IC50 in test [3] lay within 1000 to 10000 nM.

For `C[C@H](Nc1nc(N)ncc1C#N)c1nc2cccc(Cl)c2c(=O)n1-c1ccccc1` [Compound 59, (S)-2-amino-4-((1-(5-chloro-4-oxo-3-phenyl-3,4-dihydroquinazolin-2-yl)ethyl)amino)pyrimidine-5-carbonitrile], the EC50 in test [2] is less than 100 nM. In addition, the IC50 in test [3] lay within 1000 to 10000 nM.

In the case of `C[C@H](Nc1nc(N)ncc1C#N)c1cc2cccc(-c3ccc(O)nc3)c2c(=O)n1-c1ccccc1` [Compound 156], in test [2], the EC50 was less than 100 nM. Also, the IC50 in test [3] was 1000 to 10000 nM.

`Cc1ccc(-c2cccc3cc([C@H](C)Nc4nc(N)ncc4C#N)n(-c4ccccc4)c(=O)c23)cn1` [Compound 41]: the EC50 in test [2] was less than 100 nM. Besides, the IC50 in test [3] was 1000 to 10000 nM.

With `Cc1csc(-c2cnc(N)nc2N[C@@H](C)c2cc3cccc(Cl)c3c(=O)n2-c2ccccc2)n1` [Compound 136], the EC50 in test [2] is less than 100 nM. Also, the IC50 in test [3] was in the range of 1000 to 10000 nM.
